# Experimental data reported in patent US8987304B2, “Antituberculous composition comprising oxazole compounds” (priority 2005, dated 2015).
# Tests used:
# CYP1A1/2 = assay: ethoxyresorufin deethylation activity in human hepatic microsome
# Description: (§1) 4-2. Effect of the Oxazole Compound (I) on the Enzymatic Activity of Each Molecular Species of Cytochrome P450 (CYP)
# (§2) Basic reaction composition (0.5 ml) was consisting of microsome protein 0.2-1 mg/ml, 100 mM phosphate buffer (pH 7.4), 0.1 mM EDTA, NADPH generation system (2.5 mM β-NADP, 25 mM glucose-6-phosphate, 2 units glucose-6-phosphate dehydrogenase and 10 mM magnesium chloride), with or without each substrate and inhibitor, and the reaction was performed at 37° C. for 10-60 minutes. Each substrate and its concentration used were 7-ethoxyresorufln (0.5 μM), coumarin (2 μM), 7-benzyloxyresorufin (1.5 μM), tolbutamide (400 μM), S-mephenyloin (100 μM), bufuralol (20 μM), chlorzoxazone (100 μM), testosterone (100 μM) and nifedipine (50 μM).
# (§3) Generated products after the metabolic response were measured by using high performance liquid chromatography after extraction.
# [1] = system: clinical isolates of tubercle bacillus, TBT-9 and TBT-14; assay: In vitro combined effect: MIC on 7H11 agar plates and FIC index; format: cell-based; settings: 37° C., 2 weeks; for MIC: Bacillus, 336 h, each agent alone
# Description: In Vitro Experiment on the Combined Effect of an Oxazole Compound (I) and Another Agent
# A suspension of tubercle bacillus was prepared at about 10^6 CFU/ml (for clinical isolates of tubercle bacillus, TBT-9 and TBT-14). About 10 μl aliquots thereof were inoculated on respective plates by using a multipoint inoculator.
# CYP2C8/9 = assay: tolbutamide hydroxylation activity in human hepatic microsome
# Description: as §1, §2, §3
# [2] = system: intracellular parasitic tubercle bacillus (M. tuberculosis H37Rv) in THP-1 cells; assay: Effect on intracellular parasitic tubercle bacillus in THP-1 cells; format: cell-based
# [3] = system: hepatic microsomal enzyme; assay: In vitro metabolism, human hepatic microsome; format: in vitro ADME; settings: 100 μM, microsome protein 1 mg/ml, 37° C., 2 hours
# Description: (§4) 4-1. In Vitro Metabolism of Oxazole Compound (I)
# (§5) Studies on in vitro metabolism of oxazole compound (I) (compound (A-R)) were performed using hepatic microsomal enzyme of human and various animals (mouse, rat, dog, rabbit and monkey). Human microsome was obtained from Attached Primate Research Institute, HAB Discussion Group (Chiba, Japan). […] The reaction was terminated by adding organic solvent (acetonitrile or ethyl acetate) and generated metabolites were extracted. The extracted metabolites were detected by using high performance liquid chromatography and liquid chromatograph electrospray ionization tandem mass spectrometry to confirm amount of generation.
# [4] = system: hepatic microsomal enzyme; assay: In vitro metabolism, mouse hepatic microsome; format: in vitro ADME; settings: 100 μM, microsome protein 1 mg/ml, 37° C., 2 hours
# Description: as §4, §5
# [5] = system: hepatic microsomal enzyme; assay: In vitro metabolism, rat hepatic microsome; format: in vitro ADME; settings: 100 μM, microsome protein 1 mg/ml, 37° C., 2 hours
# Description: as §4, §5
# [6] = system: hepatic microsomal enzyme; assay: In vitro metabolism, dog hepatic microsome; format: in vitro ADME; settings: 100 μM, microsome protein 1 mg/ml, 37° C., 2 hours
# Description: as §4, §5
# [7] = system: hepatic microsomal enzyme; assay: In vitro metabolism, rabbit hepatic microsome; format: in vitro ADME; settings: 100 μM, microsome protein 1 mg/ml, 37° C., 2 hours
# Description: as §4, §5
# [8] = system: hepatic microsomal enzyme; assay: In vitro metabolism, monkey hepatic microsome; format: in vitro ADME; settings: 100 μM, microsome protein 1 mg/ml, 37° C., 2 hours
# Description: as §4, §5
# CYP2A6 = biological target: T1, CYP2A6 (Homo sapiens, UniProt P11509); assay: coumarin hydroxylation activity in human hepatic microsome
# T1 sequence (P11509 1-494): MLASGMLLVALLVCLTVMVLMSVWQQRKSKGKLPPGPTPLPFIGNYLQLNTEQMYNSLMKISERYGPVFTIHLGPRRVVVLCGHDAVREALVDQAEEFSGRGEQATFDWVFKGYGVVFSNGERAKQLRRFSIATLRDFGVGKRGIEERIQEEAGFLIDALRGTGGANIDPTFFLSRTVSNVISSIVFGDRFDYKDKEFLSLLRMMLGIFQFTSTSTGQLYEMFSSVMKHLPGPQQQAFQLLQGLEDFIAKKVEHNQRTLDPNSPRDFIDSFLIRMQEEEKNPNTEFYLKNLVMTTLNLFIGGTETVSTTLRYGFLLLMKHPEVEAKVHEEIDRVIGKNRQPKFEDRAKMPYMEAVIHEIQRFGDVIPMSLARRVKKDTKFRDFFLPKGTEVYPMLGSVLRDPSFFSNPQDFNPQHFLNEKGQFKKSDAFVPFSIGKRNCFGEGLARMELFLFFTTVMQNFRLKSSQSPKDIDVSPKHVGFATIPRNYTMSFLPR
# Description: as §1, §2, §3
# CYP2B6 = biological target: T2, CYP2B6 (Homo sapiens, UniProt P20813); assay: 7-benzyloxyresorufin debenzylation activity in human hepatic microsome; settings: microsomes, pH 7.4
# T2 sequence (P20813 1-491): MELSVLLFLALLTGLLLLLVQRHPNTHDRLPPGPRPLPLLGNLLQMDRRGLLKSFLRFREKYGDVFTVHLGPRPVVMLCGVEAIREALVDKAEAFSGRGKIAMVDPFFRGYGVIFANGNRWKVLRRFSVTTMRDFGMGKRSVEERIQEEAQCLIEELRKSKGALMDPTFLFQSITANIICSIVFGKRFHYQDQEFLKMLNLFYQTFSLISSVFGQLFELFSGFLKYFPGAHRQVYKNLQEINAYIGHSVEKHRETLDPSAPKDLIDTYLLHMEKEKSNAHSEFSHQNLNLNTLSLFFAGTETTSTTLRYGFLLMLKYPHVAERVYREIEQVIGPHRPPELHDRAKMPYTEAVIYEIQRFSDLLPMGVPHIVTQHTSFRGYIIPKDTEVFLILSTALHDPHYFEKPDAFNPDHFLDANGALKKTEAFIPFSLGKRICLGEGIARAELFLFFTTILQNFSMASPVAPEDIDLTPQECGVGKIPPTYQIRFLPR
# Description: as §1, §2, §3
# CYP2C19 = CYP2C19 (Homo sapiens, UniProt P33261); assay: S-mephenytoin hydroxylation activity in human hepatic microsome; settings: liver microsomes, pH 7.4, probe S-mephenytoin (100 μM)
# Description: as §1, §2, §3
# CYP2D6 = CYP2D6 (Homo sapiens, UniProt P10635); assay: bufuralol hydroxylation activity in human hepatic microsome; settings: liver microsomes, pH 7.4, probe bufuralol (20 μM)
# Description: as §1, §2, §3
# [9] = system: each CYP enzyme (CYP1A/2, CYP2A6, CYP2B6, CYP2C8/9, CYP2C19, CYP2D6, CYP2E1 and CYP3A4); assay: Summary: effect on each CYP enzyme activity in human hepatic microsome; settings: up to 100 μM
# Description: as §1, §2, §3
# [10] = system: Experimental mouse tuberculosis model; assay: In vivo experiments for intermittent administration, experimental mouse tuberculosis model; settings: three times a week, twice a week or once a week; alone or in combination with conventional antituberculous drugs
# Source text: In Vivo Experiments for Intermittent Administration
# CYP2E1 = CYP2E1 (Homo sapiens, UniProt P05181); assay: chlorozoxazone hydroxylation activity in human hepatic microsome; settings: 100 μM; CYP2E1, chlorozoxazone (100 μM)
# Description: as §1, §2, §3
# [11] = combination Compound (A-R) & RFP
# [12] = combination Compound (A-R) & EB
# [13] = liver microsomes, pH 7.4, probe tolbutamide (400 μM), hydroxylation
# [14] = human, liver microsomes, pH 7.4, probe coumarin (2 μM), coumarin hydroxylation
# Chain of CYP2D6 (P10635 whole entry): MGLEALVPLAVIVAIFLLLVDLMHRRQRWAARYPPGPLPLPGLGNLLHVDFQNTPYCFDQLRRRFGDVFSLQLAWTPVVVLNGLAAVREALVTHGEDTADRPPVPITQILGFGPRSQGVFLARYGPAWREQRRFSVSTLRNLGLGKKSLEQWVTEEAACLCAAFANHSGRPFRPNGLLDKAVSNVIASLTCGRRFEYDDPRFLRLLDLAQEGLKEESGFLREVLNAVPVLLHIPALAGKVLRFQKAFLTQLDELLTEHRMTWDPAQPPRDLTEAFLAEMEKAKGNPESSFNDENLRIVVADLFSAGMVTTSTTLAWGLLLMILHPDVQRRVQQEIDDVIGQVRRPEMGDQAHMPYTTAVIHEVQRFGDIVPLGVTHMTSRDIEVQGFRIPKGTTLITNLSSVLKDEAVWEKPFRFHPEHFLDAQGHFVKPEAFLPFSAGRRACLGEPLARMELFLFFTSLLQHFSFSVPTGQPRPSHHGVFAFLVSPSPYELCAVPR
# Chain of CYP2C19 (P33261 whole entry): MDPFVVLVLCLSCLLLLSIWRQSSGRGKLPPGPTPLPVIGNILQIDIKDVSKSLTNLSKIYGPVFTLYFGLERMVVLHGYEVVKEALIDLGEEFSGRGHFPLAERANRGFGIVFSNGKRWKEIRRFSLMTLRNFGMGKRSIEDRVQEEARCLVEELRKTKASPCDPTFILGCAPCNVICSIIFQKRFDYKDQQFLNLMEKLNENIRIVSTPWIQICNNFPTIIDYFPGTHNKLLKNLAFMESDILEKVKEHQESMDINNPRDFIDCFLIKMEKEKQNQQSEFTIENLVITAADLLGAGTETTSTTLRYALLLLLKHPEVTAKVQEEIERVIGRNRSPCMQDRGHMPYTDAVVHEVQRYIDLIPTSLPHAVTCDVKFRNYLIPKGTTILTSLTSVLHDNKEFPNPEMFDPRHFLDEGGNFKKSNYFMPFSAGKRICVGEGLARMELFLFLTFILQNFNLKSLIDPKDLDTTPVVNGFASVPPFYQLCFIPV
# Chain of CYP2E1 (P05181 whole entry): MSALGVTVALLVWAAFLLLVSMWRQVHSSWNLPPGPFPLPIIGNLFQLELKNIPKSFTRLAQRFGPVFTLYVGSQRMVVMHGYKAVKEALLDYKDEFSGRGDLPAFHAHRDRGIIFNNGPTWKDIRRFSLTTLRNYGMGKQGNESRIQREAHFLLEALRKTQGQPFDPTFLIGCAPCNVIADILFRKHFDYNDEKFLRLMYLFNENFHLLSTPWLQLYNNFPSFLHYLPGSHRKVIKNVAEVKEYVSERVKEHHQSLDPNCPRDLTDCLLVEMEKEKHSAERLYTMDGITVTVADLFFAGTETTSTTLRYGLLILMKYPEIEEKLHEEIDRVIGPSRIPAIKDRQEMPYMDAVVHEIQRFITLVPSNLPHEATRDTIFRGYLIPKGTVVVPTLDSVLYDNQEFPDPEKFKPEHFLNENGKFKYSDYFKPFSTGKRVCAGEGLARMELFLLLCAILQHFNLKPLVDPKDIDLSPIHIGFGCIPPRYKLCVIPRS
structure (smiles),measurement,setting,value
"Cc1nc2c([nH]1)c(=O)n(C)c(=O)n2Cc1ccco1 [furafylline, reference compound]",activity at 100 μM,"CYP1A1/2; human, microsomes, pH 7.4",32.3%
"CO[C@H]1/C=C/O[C@@]2(C)Oc3c(C)c(O)c4c(O)c(c(/C=N/N5CCN(C)CC5)c(O)c4c3C2=O)NC(=O)/C(C)=C\C=C\[C@H](C)[C@H](O)[C@@H](C)[C@@H](O)[C@@H](C)[C@H](OC(C)=O)[C@@H]1C [RFP, rifampicin, reference compound]",MIC in combination,[1]; [11],0.05 µg/mL
"CC[C@@H](CO)NCCN[C@@H](CC)CO [EB, ethambutol, reference compound]",MIC,[1]; line Compound (A-R) & EB,1.56 µg/mL
same,MIC in combination,[1]; [12],0.2 µg/mL
"O=c1cc(-c2ccccc2)oc2c1ccc1ccccc12 [7,8-benzoflavone, reference compound]",Relative activity (%) for control activity,"CYP1A1/2; 100 μM, CYP1A1/2, 7-ethoxyresorufin (0.5 μM)",3.8%
"Nc1ccc(S(=O)(=O)Nc2ccnn2-c2ccccc2)cc1 [sulfaphenazole, reference compound]",activity at 100 μM,CYP2C8/9; [13],25.5%
"C[C@]1(COc2ccc(N3CCC(Oc4ccc(OC(F)(F)F)cc4)CC3)cc2)Cn2cc([N+](=O)[O-])nc2O1 [Compound (A-R), (R)-2-methyl-6-nitro-2-{4-[4-(4-trifluoromethoxyphenoxy)piperidin-1-yl]phenoxymethyl}-2,3-dihydroimidazo[2,1-b]oxazole]",MIC,[1]; line Compound (A-R) & EB,0.012 µg/mL
same,MIC,[1]; line Compound (A-R) & RFP,0.024 µg/mL
same,MIC in combination,[1]; [12],0.003 µg/mL
same,MIC in combination,[1]; [11],0.006 µg/mL
same,effect in short term action,[2]; action for 2 hours,strong effect
same,effect against intracellular parasitic tubercle bacillus at the lowest test dose,[2]; compound (A-R) 0.1 μg/ml compared with RFP 3 μg/ml,equivalent effect of the maximum concentration 3 μg/ml of RFP
same,"Log reduction of bacterial counts compared with time 0 hour (FIG. 2), comparison among antituberculous drugs","[2]; test substance for 2 or 4 hours, bacteria collected at 72 hours",stronger effect
same,generated metabolites,[3],almost no generated metabolites
same,generated metabolites,[4],almost no generated metabolites
same,generated metabolites,[5],almost no generated metabolites
same,generated metabolites,[6],almost no generated metabolites
same,generated metabolites,[7],almost no generated metabolites
same,generated metabolites,[8],almost no generated metabolites
same,activity at 1 μM,"CYP1A1/2; human, microsomes, pH 7.4",99.8%
same,activity at 10 μM,"CYP1A1/2; human, microsomes, pH 7.4",98.4%
same,activity at 30 μM,"CYP1A1/2; human, microsomes, pH 7.4",102%
same,activity at 100 μM,"CYP1A1/2; human, microsomes, pH 7.4",98.6%
same,activity at 1 μM,CYP2A6; [14],103%
same,activity at 3 μM,CYP2A6; [14],102%
same,activity at 10 μM,CYP2A6; [14],103%
same,activity at 1 μM,CYP2B6,111%
same,activity at 3 μM,CYP2B6,109%
same,activity at 10 μM,CYP2B6,118%
same,activity at 30 μM,CYP2B6,113%
same,activity at 100 μM,CYP2B6,122%
same,activity at 1 μM,"CYP2C8/9; microsomes, pH 7.4",107%
same,activity at 3 μM,"CYP2C8/9; microsomes, pH 7.4",111%
same,activity at 10 μM,"CYP2C8/9; microsomes, pH 7.4",107%
same,activity at 30 μM,"CYP2C8/9; microsomes, pH 7.4",108%
same,activity at 100 μM,"CYP2C8/9; microsomes, pH 7.4",108%
same,activity at 3 μM,CYP2C19,109%
same,activity at 10 μM,CYP2C19,113%
same,activity at 1 μM,CYP2D6,102%
same,activity at 3 μM,CYP2D6,102%
same,activity at 30 μM,CYP2D6,103%
same,inhibitory action and stimulation action against each CYP enzyme activity,[9],did not exhibit inhibitory action and stimulation action
same,therapeutic effect of intermittent administration compared with once a day administration,[10],equivalent effect
"CCN(CC)C(=S)S [diethyldithiocarbamine, reference compound]",Relative activity (%) for control activity,"CYP2A6; 100 μM, CYP2A6, coumarin (2 μM)",38.2%
same,Relative activity (%) for control activity,CYP2E1,55.0%
"O=c1c(O)c(-c2ccc(O)c(O)c2)oc2cc(O)cc(O)c12 [quercetin, reference compound]",activity at 100 μM,CYP2C8/9; [13],30.6%
